Test results taken from patent US20080167246A1, “Ophthalmic and Contact Lens Solutions Containing Peptides as Preservative” (BioConcept Laboratories, priority 2003, published 2008).
Non-standard residues stand in square brackets, D forms with d. Residues, ends and D or L forms follow the SMILES beside them. No end group written: not given here.

Experiments:
Format in all cases: cell-based
[1] = tested on: Staphylococcus aureus (ATCC 6538); assay: Disinfection Efficacy antimicrobial assay (ISO 14729), S. aureus; settings: for biocidal effect on S. aureus (in words): 100 ug/mL
Procedure: (§1) Peptides were tested using a conventional Disinfection Efficacy antimicrobial assay (ISO 14729), commonly used in evaluating biocidal efficacy of preservatives for use in contact lens care solutions. Briefly, a known concentration of organisms are inoculated into the test solution, and allowed to incubate for a given amount of time, after which they are neutralized to inactivate the preservative. Samples are serially diluted and plated in duplicate onto petri plates onto which growth medium is poured. The plates are incubated at 35° C. (bacteria) or 25° C. (yeast and molds) for 48 hours. The average number of colony forming units is determined on countable plates (the dilution at which between 30 to 300 cfu/plate are observed, except when colonies are observed only on the −1 dilution plates). The log reduction resulting from exposure to the test solution is calculated based on the growth of positive controls plated simultaneously. Recovery controls, to confirm that the test solution is neutralized, and viability controls are also plated.
(§2) Method: The Disinfection Efficacy test was used with the following organisms: Staphylococcus aureus (ATCC 6538), Pseudomonas aeruginosa (ATCC 9027), Serratia marcesens (ATCC 13880), Candida albicans (ATCC 10231), and Fusarium solani (ATCC 36031). The peptides were diluted in water at a concentration of 100 ug/mL (adjusted for purity). Organism cultures were prepared to result in an inoculum concentration between 10^7 and 10^8 cfu/mL. The test solutions were inoculated for a 1 hour and a 3 hour exposure period, neutralized with DEB with 0.1% SLS added, and plated in duplicate.
(§3) Method: The Disinfection Efficacy test was used as in experiment 2 using Staphylococcus aureus and Pseudomonas aeruginosa. The peptides were diluted in water at concentrations of 100, 33.3, 10, 3.33, and 1 ug/mL. The test solutions were inoculated for 1 hour, neutralized, and plated in duplicate.

[2] = tested on: Pseudomonas aeruginosa (ATCC 9027); assay: Disinfection Efficacy antimicrobial assay (ISO 14729), P. aeruginosa; settings: for biocidal effect on P. aeruginosa (in words): 100 ug/mL; for lowest concentration resulting in complete kill of P. aeruginosa: 1 hour, tested at 100, 33.3, 10, 3.33 and 1 ug/mL
Procedure: as §1, §2, §3

[3] = tested on: Serratia marcesens (ATCC 13880); assay: Disinfection Efficacy antimicrobial assay (ISO 14729), S. marcescens; settings: Exp. 2, 1 hour exposure; for biocidal effect on S. marcescens (in words): 100 ug/mL
Procedure: as §1, §2

[4] = tested on: Candida albicans (ATCC 10231); assay: Disinfection Efficacy antimicrobial assay (ISO 14729), C. albicans; settings: Exp. 2, 1 hour exposure; for biocidal effect on C. albicans (in words): 100 ug/mL
Procedure: as §1
Method: Candida albicans (ATCC 10231) stock cultures were incubated and prepared to result in cell suspensions containing between 10^7 and 10^8 cfu/mL. The Disinfection Efficacy test, as described above, was used, with the following modification: Since the standard Dey-Engley broth used to neutralize preservatives was not necessarily expected to neutralize the peptide, 0.1% sodium laurel sulfate (SLS) was added to the neutralization solution. Controls confirmed that this was effective in neutralizing the peptide test solution.
as §2, with “The test solutions were inoculated for a 1 hour and a 3 hour exposure period, neutralized with DEB with 0.1% SLS added, and plated in duplicate.” left out

[5] = tested on: Fusarium solani (ATCC 36031); assay: Disinfection Efficacy antimicrobial assay (ISO 14729), F. solani; settings: Exp. 2, 1 hour exposure; for biocidal effect on F. solani (in words): 100 ug/mL
Procedure: as §1, §2

[6] = tested on: Staphylococcus aureus, Pseudomonas aeruginosa, Serratia marcesens, Candida albicans, Fusarium solani; assay: Disinfection Efficacy test, all 5 organisms of Experiment 2; settings: Exp. 2; 100 ug/mL, one hour exposure
Procedure: as §1
Method: The Disinfection Efficacy test was used with the following organisms: Staphylococcus aureus (ATCC 6538), Pseudomonas aeruginosa (ATCC 9027), Serratia marcesens (ATCC 13880), Candida albicans (ATCC 10231), and Fusarium solani (ATCC 36031). The peptides were diluted in water at a concentration of 100 ug/mL (adjusted for purity). […]

[7] = Exp. 3, Conc. 3.33 μg/mL, T = 1 hr
[8] = Exp. 3, Conc. 33 μg/mL, T = 1 hr
[9] = Exp. 3, Conc. 100 μg/mL, T = 1 hr
[10] = Exp. 2, 100 ug/mL in water, 1 hour exposure

Compound	biocidal effect on S. aureus (in words) ([1]; Exp. 2, 1 hour exposure)	biocidal effect on P. aeruginosa (in words) ([2]; Exp. 2, 1 hour exposure)	lowest concentration resulting in complete kill of P. aeruginosa ([2]; Exp. 3) [µg/mL]	average cfu/mL [2, 7] [cfu/mL]	average cfu/mL [2, 8] [cfu/mL]	average cfu/mL [2, 9] [cfu/mL]	biocidal effect on S. marcescens (in words) [3]	biocidal effect on C. albicans (in words) [4]	biocidal effect on F. solani (in words) [5]	other results
AKRHHGYKRKFH-NH2 (C-terminus assumed) [P-113]	no effect	effective	3.33	5.00E+00	0.00E+00	0.00E+00	no effect	effective	effective	effectiveness against S. aureus (in words) ([1]; Exp. 3, 1 to 100 ug/mL, 1 hour): not effective
FAKKFAKKFKKFAKKFAKFAFAF [D2A21]			1	0.00E+00	0.00E+00	0.00E+00				average cfu/mL [1, 10]: 0.00E+00 cfu/mL; concentration achieving complete kill of S. aureus ([1]; Exp. 3, 1 hour, tested at 100, 33.3, 10, 3.33 and 1 ug/mL): 3.33 µg/mL; average cfu/mL [1, 7]: 0.00E+00 cfu/mL; average cfu/mL [1, 8]: 0.00E+00 cfu/mL; average cfu/mL [1, 9]: 0.00E+00 cfu/mL; average cfu/mL [2, 10]: 0.00E+00 cfu/mL; average cfu/mL ([2]; Exp. 3, Conc. 1 μg/mL, T = 1 hr): 0.00E+00 cfu/mL; average cfu/mL ([2]; Exp. 3, Conc. 10 μg/mL, T = 1 hr): 0.00E+00 cfu/mL; average cfu/mL ([3]; 100 ug/mL in water): 0.00E+00 cfu/mL; average cfu/mL ([4]; 100 ug/mL in water): 0.00E+00 cfu/mL; average cfu/mL ([5]; 100 ug/mL in water): 0.00E+00 cfu/mL; kill of all 5 organisms (in words) [6]: complete kill
C[C@@H](N)C(=O)N[C@H](CCCCN)C(=O)N[C@H](CCCNC(=N)N)C(=O)N[C@H](Cc1c[nH]cn1)C(=O)N[C@H](Cc1c[nH]cn1)C(=O)NCC(=O)N[C@H](Cc1ccc(O)cc1)C(=O)N[C@H](CCCCN)C(=O)N[C@H](CCCNC(=N)N)C(=O)N[C@H](CCCCN)C(=O)N[C@H](Cc1ccccc1)C(=O)N[C@H](Cc1c[nH]cn1)C(N)=O [P-113D] (H-[dA][dK][dR][dH][dH]G[dY][dK][dR][dK][dF][dH]-NH2; N-terminus and C-terminus assumed)	no effect	effective					no effect	effective	effective	
